Source: patent US7867990B2, “Steroid hormone products and methods for preparing them” (Ortho-McNeil Pharmaceutical, Inc., priority 2001, dated 2011)
Each block holds one molecule with its values, some of them ahead of it.

Experiments:
[1] = DSC thermal analysis: glass-transition temperature (Tg) and crystallization exotherm (Tc); type: physicochemical
Description: The lactose/norgestimate mixtures made as in Example 2 were subjected to thermal analysis, according to conventional Differential Scanning Calorimetry (DSC). […] Glass-transition temperature measurements generally entail trial runs on a DSC to obtain an optimal method for observing glass-transition events. […] Some amorphous norgestimate samples produce a weak Tg event at 122-123° C., while other samples shown an exothermic event, probably because of norgestimate crystallization. All of the norgestimate samples show a similar endothermic event at 226-228° C. The thermal gravimetric analysis (TGA) of samples show rapid weight loss at that temperature, therefore, the endotherm over 220° C. primarily corresponds to decomposition. The Merck Index lists the melting temperature of the crystalline norgestimate at 214-218° C. […] This thermal event (Tc) was used to measure the stability of different simulated drug products. The temperature of Tc- should be higher if norgestimate is stabilized by lactose.

[2] = Dissolution of crystalline and non-crystalline norgestimate (USP Apparatus 2, 75 rpm, 600 ml of 0.05% Tween 20); type: physicochemical; settings: 600 ml 0.05% Tween 20
Description: Employing the current dissolution standard (USP Apparatus 2, 75 rpm, 600 ml of 0.05% Tween 20), the dissolution rates and extent of dissolution for individual samples of both crystalline and non-crystalline norgestimate were compared. […]

[3] = Physical stability (recrystallization) of amorphous materials in humidity chambers, followed by PXRD; settings: for Stability of Amorphous Norgestimate (onset of norgestimate recrystallization), 0% RH: 0% RH humidity chamber; for Stability of Amorphous Norgestimate (onset of norgestimate recrystallization), 0% RH / Stability of Amorphous Norgestimate (onset of norgestimate recrystallization), 31% RH / Stability of Amorphous Norgestimate (onset of norgestimate recrystallization), 76% RH: PXRD; for Stability of Amorphous Norgestimate (onset of norgestimate recrystallization), 31% RH: 31% RH humidity chamber; for Stability of Amorphous Norgestimate (onset of norgestimate recrystallization), 76% RH: 76% RH humidity chamber
[4] = Dissolution of norgestimate co-milled with lactose 1:9 in 100 ml 0.05% Tween 20 as a function of storage time; type: physicochemical; settings: for Norgestimate Concentration Time = 0 Days: storage 0 days; for Norgestimate Concentration Time = 44 Days: stored 44 days at 40° C./75% RH
[5] = PXRD pattern of norgestimate:lactose mixtures after milling; type: physicochemical; settings: milled 20 minutes, mill type not specified at the place
Description: Research efforts were thus made to generate the non-crystalline form of norgestimate in the presence and absence of lactose via physical and mechanical processes. Various mixtures of norgestimate and lactose were prepared. To permit qualitative or semi-quantitative analysis, the ingredients were thoroughly mixed in ratios of 1:1 and 1:9 by either dissolving them in a co-solvent mixture or by co-grinding. Qualitative assessment of the degree of crystallinity was performed employing Powder X-Ray Diffractometry (PXRD).
Mixtures of norgestimate and lactose, in amorphous and crystalline forms, were milled for 20 minutes. The amorphous state of each ingredient and of the mixture was confirmed by powder x-ray pattern diffraction (PXRD).

[6] = Dissolution of norgestimate from tablets manufactured by wet processing, initial and after accelerated storage; type: physicochemical; settings: for Percent Norgestimate Dissolved in 30 Minutes, 1 month 40° C./75% RH: wet-processed tablets stored unprotected; for Percent Norgestimate Dissolved in 30 Minutes, Initial: wet-processed tablets
Source text: The data in Table 4 further support the existence of a high energy form of norgestimate in the presence of lactose. […] Like the data reported in Table 2, dissolution properties are dependent on storage conditions. However it is apparent that the extent of such changes is further dependent on the mixing energetics imparted during the process.

[7] = Dissolution of norgestimate from tablets manufactured by dry processing, pilot and production scale; type: physicochemical; settings: dry-processed tablets
Description: Differences in the dissolution behavior of norgestimate from tablets manufactured by dry processing on both a pilot scale and a production scale were also evaluated. The minimum mechanical energy of 0.1 hp-min/kg can be imparted in a dry process using a geometric tumbler blender equipped for additional mixing energy with blades or choppers. A progestin such as norgestimate can be combined with lactose and additives. Increasing the length of processing time with the blades or choppers in use would impart sufficient energy to produce the forms identified in this invention. […] The important of dissolution rate as a function of mixing time is also noted.

SMILES: C#C[C@]1(OC(C)=O)CC[C@H]2[C@@H]3CCC4=CC(=NO)CC[C@@H]4[C@H]3CC[C@@]21CC (mixture of isomers) [Amorphous Norgestimate, norgestimate]
Norgestimate concentration dissolved ([2]; dissolution time 5 min): 0.44 µg/mL
Norgestimate concentration dissolved ([2]; dissolution time 60 min): 1.38 µg/mL
Norgestimate concentration dissolved ([2]; dissolution time 120 min): 1.88 µg/mL
Tc (crystallization of norgestimate) [1]: 105 °C
Tg (glass-transition temperature) [1]: 122-123 °C
Stability of Amorphous Norgestimate (onset of norgestimate recrystallization), 0% RH [3]: < 3 days
Stability of Amorphous Norgestimate (onset of norgestimate recrystallization), 31% RH [3]: less than 1 days
Stability of Amorphous Norgestimate (onset of norgestimate recrystallization), 76% RH [3]: less than 1 days
Time to complete recrystallization of amorphous norgestimate ([3]; room temperature, 0%, 31% and 76% RH (all conditions tested)): ≤ 3 days

SMILES: C#C[C@]1(OC(C)=O)CC[C@H]2[C@@H]3CCC4=CC(=NO)CC[C@@H]4[C@H]3CC[C@@]21CC [Crystalline Norgestimate, norgestimate]
Norgestimate concentration dissolved ([2]; dissolution time 5 min): 0.43 µg/mL
Norgestimate concentration dissolved ([2]; dissolution time 60 min): 0.81 µg/mL
Norgestimate concentration dissolved ([2]; dissolution time 140 min): 1.36 µg/mL

SMILES: OC[C@H]1O[C@@H](O[C@H]2[C@H](O)[C@@H](O)C(O)O[C@@H]2CO)[C@H](O)[C@@H](O)[C@H]1O (stereo partly shown) [lactose]
Solid-state form of lactose after milling with norgestimate (PXRD) [5]: partially crystalline

Now from value to molecule:

Tg (glass-transition temperature) [1]: 114-115 °C
SMILES: OC[C@H]1O[C@@H](O[C@H]2[C@H](O)[C@@H](O)C(O)O[C@@H]2CO)[C@H](O)[C@@H](O)[C@H]1O (stereo partly shown) [Amorphous lactose, lactose]

Norgestimate Concentration Time = 0 Days ([4]; dissolution time 10 min): 5.3 µg/mL
Norgestimate Concentration Time = 44 Days ([4]; dissolution time 10 min): 2.4 µg/mL
Norgestimate Concentration Time = 0 Days ([4]; dissolution time 20 min): 5.1 µg/mL
Norgestimate Concentration Time = 44 Days ([4]; dissolution time 20 min): 5.2 µg/mL
Norgestimate Concentration Time = 0 Days ([4]; dissolution time 30 min): 6.2 µg/mL
Norgestimate Concentration Time = 44 Days ([4]; dissolution time 30 min): 6.5 µg/mL
Norgestimate Concentration Time = 0 Days ([4]; dissolution time 60 min): 8.7 µg/mL
Norgestimate Concentration Time = 44 Days ([4]; dissolution time 60 min): 5.9 µg/mL
Norgestimate Concentration Time = 0 Days ([4]; dissolution time 240 min): 10 µg/mL
Norgestimate Concentration Time = 44 Days ([4]; dissolution time 240 min): 6.7 µg/mL
Norgestimate Concentration Time = 0 Days ([4]; dissolution time 720 min): 10.3 µg/mL
Norgestimate Concentration Time = 44 Days ([4]; dissolution time 720 min): 7.3 µg/mL
Solid-state form of norgestimate after milling with lactose (PXRD) [5]: non-crystalline
Percent Norgestimate Dissolved in 30 Minutes, 1 month 40° C./75% RH ([6]; blend time 0 minutes): 36%
Percent Norgestimate Dissolved in 30 Minutes, 1 month 40° C./75% RH ([6]; blend time 2* minutes): 45%
Percent Norgestimate Dissolved in 30 Minutes, 1 month 40° C./75% RH ([6]; blend time 20 minutes): 45%
Percent Norgestimate Dissolved in 30 Minutes, 1 month 40° C./75% RH ([6]; blend time 40 minutes): 46%
Percent Norgestimate Dissolved in 30 Minutes, 1 month 40° C./75% RH ([6]; blend time 60 minutes): 85%
Percent Norgestimate Dissolved in 30 Minutes, Initial ([6]; blend time 0 minutes): 75.4%
Percent Norgestimate Dissolved in 30 Minutes, Initial ([6]; blend time 2* minutes): 91%
Percent Norgestimate Dissolved in 30 Minutes, Initial ([6]; blend time 20 minutes): 90.1%
Percent Norgestimate Dissolved in 30 Minutes, Initial ([6]; blend time 40 minutes): 92.6%
Percent Norgestimate Dissolved in 30 Minutes, Initial ([6]; blend time 60 minutes): 94.5%
Stability of Amorphous Norgestimate (onset of norgestimate recrystallization), 0% RH [3]: <3 days
Stability of Amorphous Norgestimate (onset of norgestimate recrystallization), 31% RH [3]: <1 day days
Stability of Amorphous Norgestimate (onset of norgestimate recrystallization), 76% RH [3]: <1 day days
Time to recrystallization of norgestimate ([3]; in the absence of lactose, room temperature, 0% RH chamber): ≤ 3 days
Time norgestimate remained partially crystalline ([3]; norgestimate co-milled with lactose 1:9, approximately 40° C. at 75% RH): at least 44 days
Percent Norgestimate Dissolved in 20 Minutes ([7]; pilot scale, mixing time 5 minutes): 78.4%
Percent Norgestimate Dissolved in 20 Minutes ([7]; pilot scale, mixing time 10 minutes): 85%
Percent Norgestimate Dissolved in 20 Minutes ([7]; pilot scale, mixing time 20 minutes): 88.5%
Percent Norgestimate Dissolved in 20 Minutes ([7]; pilot scale, mixing time 30 minutes): 97.4%
Percent Norgestimate Dissolved in 20 Minutes ([7]; pilot scale, mixing time 33 minutes): 93.6%
Percent Norgestimate Dissolved in 20 Minutes ([7]; pilot scale, mixing time […]): 74.9%
Percent Norgestimate Dissolved in 20 Minutes ([7]; production scale, mixing time 4.8 minutes): 64.7%
Percent Norgestimate Dissolved in 20 Minutes ([7]; production scale, mixing time 12 minutes): 81.2%
Percent Norgestimate Dissolved in 20 Minutes ([7]; production scale, mixing time 15 minutes): 90.3%
Percent Norgestimate Dissolved in 20 Minutes ([7]; production scale, mixing time 30 minutes): 92.8%
Percent Norgestimate Dissolved in 20 Minutes ([7]; production scale, mixing time 45 minutes): 96.2%
Percent Norgestimate Dissolved in 20 Minutes ([7]; production scale, mixing time 60 minutes): 97.4%
Percent Norgestimate Dissolved in 20 Minutes ([7]; production scale, mixing time 75 minutes): 97.2%
SMILES: C#C[C@]1(OC(C)=O)CC[C@H]2[C@@H]3CCC4=CC(=NO)CC[C@@H]4[C@H]3CC[C@@]21CC (mixture of isomers) [Norgestimate, norgestimate]
